Measured values published in publication PMC3856494, “Radiofluorination and biological evaluation of N-aryl-oxadiazolyl-propionamides as potential radioligands for PET imaging of cannabinoid CB2 receptors” (Organic and Medicinal Chemistry Letters, 2013).

Experiments:
[1] = Ex vivo biodistribution (organ distribution) in mice; conditions: i.v. 300 to 400 kBq, female CD1 mice
Method: (§1) Female CD1 mice (10 to 12 weeks old, 20 to 25 g) received an injection of 300 to 400 kBq of [^18F]1 or [^18F]2 with specific activities of >450 GBq/μmol in 200 μL of 0.9% NaCl/10% EtOH into the tail vein. The animals were anesthetized (CO2/O2 mixture) for blood and urine sampling and euthanized by luxation of the cervical spine at 5, 30, and 60 min after injection (p.i.) (n = 2 to 5 per time). The organs of interest were removed and weighed, and the activities were measured by γ counting using a calibrated γ counter Wallac Wizard 1470 (Perkin Elmer Inc., Waltham, MA, USA). The percentage of injected dose per gram of wet tissue (% ID/g wet weight) was calculated.

[2] = In vitro radiochemical stability; assay type: physicochemical; conditions: 40°C, after 30 min of incubation
Method: In vitro radiochemical stabilities of [^18F]1 and [^18F]2 were investigated in 0.9% NaCl solution, Dulbecco’s phosphate buffer, 0.01 M Tris–HCl (pH 7.4 at 21°C), and EtOH at 40°C for 90 min. Samples were taken at 15, 30, 60, and 90 min after incubation and analyzed by radio-TLC and radio-HPLC.

[3] = molecular target: CB2R (Mus musculus, UniProt P47936); design: species or system female CD1 mice; conditions: female, CD1, mouse, in vivo
Method: as §1
(3 mg/kg i.p. in 0.9% saline, 10 min before the injection of the radiotracer) at 60 min p.i. (n = 2 to 5). The unpaired two-tailed t test was used to compare the results between the groups. We considered differences to be significant at a p value <0.05.

[4] = Ex vivo metabolite studies (radio-HPLC of plasma and brain extracts); assay type: in vivo, CD1 mice; conditions: mice
Method: [^18F]1 and [^18F]2 (100 to 150 MBq, 250 to 450 GBq/μmol in 150 μL NaCl 0.9%/10% EtOH) were injected via the tail vein in CD1 male mice (10 to 12 weeks old, 20 to 25 g). Blood and urine samples were obtained at 30 and 60 min p.i. (n = 3 per time point). Twofold extractions of plasma and brain samples (n = 3) were performed using ice-cold MeCN according to the standard protocol established in our group (see [47, 48]). Briefly, plasma samples were obtained by centrifugation of the blood at 4,000×g at 4°C for 10 min, and brain samples were homogenized in ice-cold 50 mM Tris–HCl (pH = 7.4). The samples were vortexed, incubated on ice, and centrifuged at 10,000×g for 3 min. Supernatants were collected, and the precipitates were re-dissolved in ice-cold MeCN for the second extraction. The supernatants from the two extractions were combined, concentrated under a gentle argon stream at 65°C, and analyzed by radio-TLC and gradient analytical HPLC (see ‘Radiochemistry’ section). Aliquots from each extraction supernatant and the precipitates were also taken and quantified by γ counting (Wallac Wizard 1470, Perkin Elmer Inc., Waltham, MA, USA) along with the respective aliquots of intact plasma samples and brain homogenates. A moderate recovery of radioactivity was obtained from plasma samples and brain homogenates (60% to 70%). Radiometabolites of [^18F]17 in the plasma, spleen, and brain were assessed at 30 and 60 min p.i.

Chain of CB2R (P47936 whole entry): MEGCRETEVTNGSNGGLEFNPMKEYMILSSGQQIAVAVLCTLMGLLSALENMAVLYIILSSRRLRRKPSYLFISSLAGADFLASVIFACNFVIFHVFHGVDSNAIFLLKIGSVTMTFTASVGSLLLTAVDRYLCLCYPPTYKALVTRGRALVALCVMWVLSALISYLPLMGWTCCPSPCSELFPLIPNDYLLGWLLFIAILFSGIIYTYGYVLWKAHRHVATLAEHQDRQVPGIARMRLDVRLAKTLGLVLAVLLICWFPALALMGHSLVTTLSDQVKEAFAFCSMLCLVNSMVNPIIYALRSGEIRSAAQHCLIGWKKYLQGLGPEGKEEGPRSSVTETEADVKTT

O=C(CCc1nc(-c2ccc(F)cc2Br)no1)Nc1ccc2c(c1)c1ccccc1n2CC[18F] [[^18F]1]
Radioactivity uptake, Adrenals, Control 5 min [1]: 4.16 ± 6.23 % ID/g
Radioactivity uptake, Adrenals, Control 30 min [1]: 3.31 ± 0.99 % ID/g
Radioactivity uptake, Adrenals, Control 60 min [1]: 3.16 ± 1.25 % ID/g
Radioactivity uptake, Bladder, Control 5 min [1]: 2.23 ± 1.39 % ID/g
Radioactivity uptake, Bladder, Control 30 min [1]: 1.65 ± 0.43 % ID/g
Radioactivity uptake, Bladder, Control 60 min [1]: 3.27 ± 1.94 % ID/g
Radioactivity uptake, Blood, Control 5 min [1]: 1.94 ± 0.44 % ID/g
Radioactivity uptake, Blood, Control 30 min [1]: 1.44 ± 0.41 % ID/g
Radioactivity uptake, Blood, Control 60 min [1]: 1.94 ± 0.69 % ID/g
Radioactivity uptake, Brain, Control 5 min [1]: 1.31 ± 0.24 % ID/g
Radioactivity uptake, Brain, Control 30 min [1]: 0.76 ± 0.22 % ID/g
Radioactivity uptake, Brain, Control 60 min [1]: 0.92 ± 0.27 % ID/g
Radioactivity uptake, Femur, Control 5 min [1]: 2.00 ± 0.38 % ID/g
Radioactivity uptake, Femur, Control 30 min [1]: 1.37 ± 0.50 % ID/g
Radioactivity uptake, Femur, Control 60 min [1]: 1.84 ± 0.35 % ID/g
Radioactivity uptake, Gonads, Control 5 min [1]: 1.06 ± 0.94 % ID/g
Radioactivity uptake, Gonads, Control 30 min [1]: 1.02 ± 0.26 % ID/g
Radioactivity uptake, Gonads, Control 60 min [1]: 1.33 ± 0.50 % ID/g
Radioactivity uptake, Heart, Control 5 min [1]: 3.39 ± 0.45 % ID/g
Radioactivity uptake, Heart, Control 30 min [1]: 1.43 ± 0.47 % ID/g
Radioactivity uptake, Heart, Control 60 min [1]: 1.66 ± 0.37 % ID/g
Radioactivity uptake, Kidney, Control 5 min [1]: 13.40 ± 5.66 % ID/g
Radioactivity uptake, Kidney, Control 30 min [1]: 2.68 ± 0.37 % ID/g
Radioactivity uptake, Kidney, Control 60 min [1]: 1.65 ± 0.49 % ID/g
Radioactivity uptake, Large intestine, Control 5 min [1]: 1.91 ± 2.66 % ID/g
Radioactivity uptake, Large intestine, Control 30 min [1]: 3.24 ± 5.61 % ID/g
Radioactivity uptake, Large intestine, Control 60 min [1]: 1.54 ± 0.42 % ID/g
Radioactivity uptake, Liver, Control 5 min [1]: 11.00 ± 1.04 % ID/g
Radioactivity uptake, Liver, Control 30 min [1]: 4.38 ± 1.19 % ID/g
Radioactivity uptake, Liver, Control 60 min [1]: 5.29 ± 1.22 % ID/g
Radioactivity uptake, Lung, Control 5 min [1]: 3.68 ± 0.62 % ID/g
Radioactivity uptake, Lung, Control 30 min [1]: 1.65 ± 0.70 % ID/g
Radioactivity uptake, Lung, Control 60 min [1]: 1.77 ± 0.74 % ID/g
Radioactivity uptake, Muscle, Control 5 min [1]: 2.10 ± 0.33 % ID/g
Radioactivity uptake, Muscle, Control 30 min [1]: 1.02 ± 0.50 % ID/g
Radioactivity uptake, Muscle, Control 60 min [1]: 0.89 ± 0.19 % ID/g
Radioactivity uptake, Pancreas, Control 5 min [1]: 4.97 ± 0.62 % ID/g
Radioactivity uptake, Pancreas, Control 30 min [1]: 1.50 ± 0.74 % ID/g
Radioactivity uptake, Pancreas, Control 60 min [1]: 1.13 ± 0.11 % ID/g
Radioactivity uptake, Plasma, Control 5 min [1]: 2.52 ± 0.58 % ID/g
Radioactivity uptake, Plasma, Control 30 min [1]: 1.88 ± 0.58 % ID/g
Radioactivity uptake, Plasma, Control 60 min [1]: 2.50 ± 0.87 % ID/g
Radioactivity uptake, Small intestine, Control 5 min [1]: 4.36 ± 2.09 % ID/g
Radioactivity uptake, Small intestine, Control 30 min [1]: 10.51 ± 8.38 % ID/g
Radioactivity uptake, Small intestine, Control 60 min [1]: 22.03 ± 8.32 % ID/g
Radioactivity uptake, Spleen, Control 5 min [1]: 3.44 ± 0.77 % ID/g
Radioactivity uptake, Spleen, Control 30 min [1]: 1.46 ± 0.56 % ID/g
Radioactivity uptake, Spleen, Control 60 min [1]: 1.52 ± 0.62 % ID/g
Radioactivity uptake, Stomach, Control 5 min [1]: 2.05 ± 0.33 % ID/g
Radioactivity uptake, Stomach, Control 30 min [1]: 1.23 ± 0.36 % ID/g
Radioactivity uptake, Stomach, Control 60 min [1]: 2.70 ± 1.47 % ID/g
Radioactivity uptake, Thymus, Control 5 min [1]: 3.30 ± 0.58 % ID/g
Radioactivity uptake, Thymus, Control 30 min [1]: 1.57 ± 0.80 % ID/g
Radioactivity uptake, Thymus, Control 60 min [1]: 1.90 ± 0.98 % ID/g
intact tracer ([2]; 0.9% NaCl): 95%
intact tracer ([2]; Dulbecco’s phosphate buffer): 94%
intact tracer ([2]; EtOH): 93%
intact tracer ([2]; Tris–HCl): 89%
Radioactivity uptake, Adrenals, Blocking 60 min ([3]; 3 mg/kg, 1 h): 3.00 ± 0.64 % ID/g
Radioactivity uptake, Bladder, Blocking 60 min ([3]; 3 mg/kg, 1 h): 5.07 ± 3.84 % ID/g
Radioactivity uptake, Blood, Blocking 60 min ([3]; 3 mg/kg, 1 h): 1.43 ± 0.34 % ID/g
Radioactivity uptake, Brain, Blocking 60 min ([3]; 3 mg/kg, 1 h): 0.66 ± 0.11 % ID/g
Radioactivity uptake, Femur, Blocking 60 min ([3]; 3 mg/kg, 1 h): 1.49 ± 0.45 % ID/g
Radioactivity uptake, Gonads, Blocking 60 min ([3]; 3 mg/kg, 1 h): 1.19 ± 0.30 % ID/g
Radioactivity uptake, Heart, Blocking 60 min ([3]; 3 mg/kg, 1 h): 1.49 ± 0.29 % ID/g
Radioactivity uptake, Kidney, Blocking 60 min ([3]; 3 mg/kg, 1 h): 1.74 ± 0.48 % ID/g
Radioactivity uptake, Large intestine, Blocking 60 min ([3]; 3 mg/kg, 1 h): 1.63 ± 0.64 % ID/g
Radioactivity uptake, Liver, Blocking 60 min ([3]; 3 mg/kg, 1 h): 4.22 ± 0.96 % ID/g
Radioactivity uptake, Lung, Blocking 60 min ([3]; 3 mg/kg, 1 h): 1.47 ± 0.29 % ID/g
Radioactivity uptake, Muscle, Blocking 60 min ([3]; 3 mg/kg, 1 h): 0.93 ± 0.23 % ID/g
Radioactivity uptake, Pancreas, Blocking 60 min ([3]; 3 mg/kg, 1 h): 1.03 ± 0.26 % ID/g
Radioactivity uptake, Plasma, Blocking 60 min ([3]; 3 mg/kg, 1 h): 1.87 ± 0.41 % ID/g
Radioactivity uptake, Small intestine, Blocking 60 min ([3]; 3 mg/kg, 1 h): 19.39 ± 5.53 % ID/g
Radioactivity uptake, Spleen, Blocking 60 min ([3]; 3 mg/kg, 1 h): 0.98 ± 0.21 % ID/g
Radioactivity uptake, Stomach, Blocking 60 min ([3]; 3 mg/kg, 1 h): 1.84 ± 1.28 % ID/g
Radioactivity uptake, Thymus, Blocking 60 min ([3]; 3 mg/kg, 1 h): 1.50 ± 0.35 % ID/g
% control, Adrenals ([3]; 60 min): 95 % control
% control, Bladder ([3]; 60 min): 155 % control
% control, Blood ([3]; 60 min): 74 % control
% control, Brain ([3]; 60 min): 72 % control
% control, Femur ([3]; 60 min): 81 % control
% control, Gonads ([3]; 60 min): 89 % control
% control, Heart ([3]; 60 min): 90 % control
% control, Kidney ([3]; 60 min): 106 % control
% control, L. intestine ([3]; 60 min): 106 % control
% control, Liver ([3]; 60 min): 80 % control
% control, Lung ([3]; 60 min): 83 % control
% control, Muscle ([3]; 60 min): 104 % control
% control, Pancreas ([3]; 60 min): 91 % control
% control, Plasma ([3]; 60 min): 75 % control
% control, S. intestine ([3]; 60 min): 88 % control
% control, Spleen ([3]; 60 min): 65 % control
% control, Stomach ([3]; 60 min): 68 % control
% control, Thymus ([3]; 60 min): 79 % control
Percentage of total activity in brain samples, 30 min p.i. ([4]; brain homogenate extract, 30 min p.i. of [18F]1 or [18F]2, radio-HPLC): 68%
Percentage of total activity in brain samples, 60 min p.i. ([4]; brain homogenate extract, 60 min p.i. of [18F]1 or [18F]2, radio-HPLC): 35%
Relative percentage of intact tracer and radiometabolites, Plasma 30 min p.i. ([4]; plasma, 30 min p.i. of [18F]1 or [18F]2, radio-HPLC): 60%
Relative percentage of intact tracer and radiometabolites, Plasma 60 min p.i. ([4]; plasma, 60 min p.i. of [18F]1 or [18F]2, radio-HPLC): 7%
